Experimental findings from PMC9030381, “The Discovery of Potent SHP2 Inhibitors with Anti-Proliferative Activity in Breast Cancer Cell Lines” (International Journal of Molecular Sciences, 2022) are described below.

The test system of assay [1] is MCF-7. Description: Cell proliferative assay (DAPI cell count). It is filed as cell-based. Conditions: at 20 μM, 48 h, in comparison with the vehicle. How it is done:
(§1) The 5 × 10^3 cells/well of MCF-7 or MDA-MB-231cell-lines were seeded in 96 well plates. The next day, cells were treated with 0.16, 0.8, 4, and 20 µM of NSC 13030, 24198, 57774, 137420, or DMSO (Sigma-Aldrich–Cat D9170, St. Louis, MO, USA) as control. After 48 h of incubation, cells were stained with DAPI (Thermo Fischer–Cat R37606, Waltham, MA, USA) and images of the entire wells were taken with a 20× objective and a DAPI filter cube using Lionheart FX automated microscope. The image analysis and cell counts were done using Gen5 software. All conditions were done in triplicates.

The test system of assay [2] is MDA-MB-231. In words: Cell proliferative assay (DAPI cell count). In kind it is cell-based. The following applies: at 20 μM, 48 h, in comparison with the vehicle. The method, then: as §1
For another assay, the target named is T1, SHP2 (Homo sapiens, UniProt Q06124).
T1 construct: purchased BPS Bioscience, Inc., San Diego, CA, USA
T1 sequence (Q06124 1-593): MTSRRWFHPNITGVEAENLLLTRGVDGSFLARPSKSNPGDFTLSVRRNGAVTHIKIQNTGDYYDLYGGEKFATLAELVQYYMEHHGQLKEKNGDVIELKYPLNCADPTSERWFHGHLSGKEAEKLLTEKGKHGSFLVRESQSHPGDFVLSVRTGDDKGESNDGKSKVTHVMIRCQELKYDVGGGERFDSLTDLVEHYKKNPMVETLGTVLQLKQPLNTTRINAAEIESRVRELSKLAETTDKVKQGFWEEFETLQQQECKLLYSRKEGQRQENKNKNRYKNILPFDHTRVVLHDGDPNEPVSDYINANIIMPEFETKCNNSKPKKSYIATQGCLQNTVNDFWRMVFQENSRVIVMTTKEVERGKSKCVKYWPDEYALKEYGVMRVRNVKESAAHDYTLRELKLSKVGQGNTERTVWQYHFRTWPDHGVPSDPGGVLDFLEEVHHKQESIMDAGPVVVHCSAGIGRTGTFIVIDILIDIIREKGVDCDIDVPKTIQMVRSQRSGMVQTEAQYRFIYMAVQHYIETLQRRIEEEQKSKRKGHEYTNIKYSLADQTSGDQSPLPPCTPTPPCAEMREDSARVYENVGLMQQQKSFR
Description: Enzymatic SHP2 inhibition assay (pNPP phosphatase activity). Conditions: for IC50: pNPP substrate, read-out: SHP2 Obtained IC50; for inhibition at 100 µM: read-out: inhibition of SHP2 enzyme. It is filed as biochemical. How it is done: Phosphatase Activity Assay (PTP) using p-nitrophenyl phosphate (pNPP) as a substrate was carried out in a total volume of 100 µL. This was done by monitoring the increase in phosphatase absorbance at 405 nm in the presence of the substrate using 96-well microplate reader (Thermo Scientific Multiskan GO, Waltham, MA, USA). The standard reaction mixture consisted of PTP buffer (100 mM NaCl, 2 mM EDTA, 50 mM HEPES, 3 mM DTT, pH 7.4), 100 nM of Shp2 (BPS Bioscience, Inc., San Diego, CA, USA), and 1 mM of pNPP incubated for 90 min at 30 °C. The enzymatic reaction was stopped by the addition of 50 µL of 5 M NaOH. For inhibition reaction, SHP2 enzyme was preincubated with 100 µM compound or their vehicle (DMSO) for 5 min at 37 °C, prior to the incubation with pNPP substrate for 90 min at 30 °C. The same method was used to calculate IC50 values using GraphPad Prism software 8.0 (San Diego, CA, USA). Wells with SHP2 substrate and without compounds were considered controls (enzyme activity is 100%).

Assay [3] concerns MCF-7. Description: Cell viability assay (CellTiter 96 AQueous One). The following applies: at 20 μM, 48 h. In kind it is cell-based. How it is done: (§2) The percentage of viable cells was determined using The CellTiter 96® AQueous One Solution Cell Proliferation Assay (Promega–Cat G3580, Madison, WI, USA). Briefly, 5 × 10^3 cells/well of MCF-7 or MDA-MB-231 were plated in a 96 well culture plate in a total volume of 100 µL/well. The next day, cells were treated with 0.16, 0.8, 4, and 20 µM of NSC 13030, 24198, 57774, 137420, or DMSO as control. After 48 h, 20 µL of CellTiter 96 AQuoeus one solution reagent was added in each well, and incubated for 4 h in a CO2 incubator at 37 °C. The percentage of living cells was calculated by dividing the OD (490 nm) of treated cells by the same concentration of DMSO controls. All conditions were done in triplicates.

Assay [4] has as its system MDA-MB-231. In words: Cell viability assay (CellTiter 96 AQueous One). In kind it is cell-based. Conditions: at 20 μM, 48 h. How it is done:
as §2

The target of another assay is SHP1 (Homo sapiens, UniProt P29350). Description: Enzymatic SHP1 inhibition assay (selectivity). In kind it is biochemical. The following applies: read-out: SHP1 Obtained IC50.
Chain of SHP1 (P29350 whole entry): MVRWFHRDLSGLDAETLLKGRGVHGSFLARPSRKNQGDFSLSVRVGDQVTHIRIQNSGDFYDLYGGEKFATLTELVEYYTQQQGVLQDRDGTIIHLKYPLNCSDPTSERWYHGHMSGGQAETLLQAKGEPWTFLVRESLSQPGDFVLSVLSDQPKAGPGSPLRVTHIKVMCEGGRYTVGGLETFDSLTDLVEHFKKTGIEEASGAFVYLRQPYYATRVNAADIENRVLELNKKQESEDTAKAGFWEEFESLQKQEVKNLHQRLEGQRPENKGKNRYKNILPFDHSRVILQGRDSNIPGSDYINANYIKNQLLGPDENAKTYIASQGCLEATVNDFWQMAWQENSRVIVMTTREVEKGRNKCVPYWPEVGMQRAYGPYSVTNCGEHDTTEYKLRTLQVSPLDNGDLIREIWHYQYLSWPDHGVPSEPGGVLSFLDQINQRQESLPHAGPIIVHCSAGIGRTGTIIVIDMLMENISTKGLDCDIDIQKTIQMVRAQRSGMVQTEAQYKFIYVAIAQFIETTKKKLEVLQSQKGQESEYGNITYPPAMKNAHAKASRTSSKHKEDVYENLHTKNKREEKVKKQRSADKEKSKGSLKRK

As a reminder, the IC50 is the point on the concentration scale where inhibition reaches its midpoint. By inhibition is commonly meant the relative decrease from the control value, in per cent.

With `Cc1c2oc3c(C)ccc(C(=O)O)c3nc-2c(C(=O)O)c(N)c1=O` [Compound 57774], in the assay with MCF-7 [1], the “reduction of MCF-7 proliferation” value is 74.5%. Further, in the assay on MDA-MB-231 [2], the “reduction of MDA-MB-231 proliferation” value amounted to 64%. In addition, the “selectivity, inhibition activity towards SHP2 over SHP1” value on SHP2 (SHP2 over SHP1) turned out to be 200 fold. For the same compound, the “inhibition of SHP2 enzyme” value on SHP2 (at 100 μM compound, 100 µM) is reported as “complete SHP2 inhibition”. The IC50 at SHP2 came out at 0.8 µM; at SHP1, 164 µM. Moreover, the “reduction of MCF-7 viability” value in the assay on MCF-7 [3] was 65.8%. Besides, in the assay on MDA-MB-231 [4], the “reduction of MDA-MB-231 viability” value is 36.2%.

For `O=C(O)CSC(Nc1ccccc1C(=O)O)c1ccccc1` (centres unmarked) [Compound 24198], the “reduction of MCF-7 proliferation” value with MCF-7 [1] is on record as 34.7%. Also, the inhibition at 100 µM on SHP2 (at 100 μM compound) stood at 99%. In addition, the results for the half-maximal inhibitory concentration (IC50) on SHP2 and at SHP1 were 1.9 µM and 14.3 µM, respectively. Besides, in the assay on MCF-7 [3], the “reduction of MCF-7 viability” value was 65.2%.

`O=C(c1ccccc1)c1ccc2c(Cl)ccc(C(=O)O)c2c1C(=O)O` [Compound 137420]: the inhibition at 100 µM at SHP2 (at 100 μM compound) turned out to be 71%. For the same compound, the IC50 on SHP2 was 33 µM.

As for `COc1ccc2nc3cc(Cl)ccc3c(SC(CC(=O)O)C(=O)O)c2c1` (centres unmarked) [Compound 13030], the “reduction of MCF-7 proliferation” value with MCF-7 [1] came to 42.1%. Moreover, the inhibition at 100 µM at SHP2 (at 100 μM compound) worked out at 98%. The IC50 on SHP2 amounted to 3.2 µM; at SHP1, 85.4 µM. In addition, the “reduction of MCF-7 viability” value in the assay with MCF-7 [3] was found to be 64.4%.

With `Cc1ccc(C(=O)Nc2ccc(S(=O)(=O)O)c3cc(S(=O)(=O)O)cc(S(=O)(=O)O)c23)cc1NC(=O)c1cccc(NC(=O)Nc2cccc(C(=O)Nc3cc(C(=O)Nc4ccc(S(=O)(=O)O)c5cc(S(=O)(=O)O)cc(S(=O)(=O)O)c45)ccc3C)c2)c1` [Suramin, reference compound], at SHP2 (at 100 μM compound), the inhibition at 100 µM was found to be 79%. Further, the IC50 at SHP2 was 4.5 µM; on SHP1 it was 15.4 µM.
